# Results: patent publication US11412737B2, “Mixtures of beflubutamid or optically enriched forms thereof with a second herbicide” (FMC Corporation, priority 2016, dated 2022)
# Columns and labels:
# Large crabgrass (DIGSA) = assay: pre-emergence test, weed control; format: in vivo; conditions: pre-emergent, 28 DAT, rate g ai/ha by row: r4 94, r5 50, r6 100, r7 52.5, r8 70, r9 94+52.5, r10 94+70, r11 50+52.5, r12 50+70, r13 100+52.5, r14 100+70
# Description: (§1) Test compositions containing the test compounds were diluted with water to provide the appropriate test rate concentrations.
# (§2) For pre-emergence testing, four disposable fiber flats (6 inch by 10 inch) for each rate of application of each herbicide solution were filled with top soil, to which seeds of each species were planted in furrows made by a template pressed on the top of the soil. The furrows were covered with soil after planting the seed and were watered well before application of the test compounds.
# (§3) Fiber flats designated for treatment were placed in a spray chamber having a static platform and a movable sprayer and the height of the spray nozzle was 10.5 inches above the soil level. Once the sprayer was calibrated using water for spray volume of 30 gallons per acre, flats were sprayed with sprayer at a speed to receive a coverage equivalent of 30 gallons per acre. The application rates are those shown in the Tables below for the individual herbicidal solutions and the herbicide compositions of this invention. The pre-emergence flats were immediately placed in the greenhouse and watered lightly after treatment. Thereafter they were regularly watered and fertilized for the duration of the test.
# (§4) The control of weeds was evaluated in each experimental test at 21 for wheat and 28 days after treatment (DAT) for all species. Data were analyzed using Minitab software at 95% confidence interval. The results, shown as an average of the replications, were compared with results observed in untreated control flats in the same tests. Percent control was determined by a method similar to the 0 to 100 rating system disclosed in “Research Methods in Weed Science,” 2nd ed., B. Truelove, Ed.; Southern Weed Science Society; Auburn University, Auburn, Ala., 1977. The rating system is as follows in Table 1.
# Palmer amaranth (AMAPA) = assay: pre-emergence test, weed control; format: in vivo, Amaranthus palmeri; conditions: pre-emergent, 28 DAT, (−)-BFL >95% e.e., rate g ai/ha by row: r6 62, r7 125, r8 125, r9 250, r10 445, r11 890, r12 45, r13 90, r14 62+125, r15 125+125, r16 62+250, r17 125+250, r18 62+445, r19 125+445, r20 62+890, r21 125+890, r22 62+45, r23 125+45, r24 62+90, r25 125+90
# Description: as §1, §2, §3, §4
# Yellow foxtail (SETLU) = assay: pre-emergence test, weed control; format: in vivo; conditions: pre-emergent, 28 DAT
# Description: as §1, §2, §3, §4
# Blackgrass (ALOMY) = assay: pre-emergence test, weed control; format: in vivo; conditions: pre-emergent, 28 DAT
# Description: as §1, §2, §3, §4
# Wild oat (AVEFA) = assay: pre-emergence test, weed control; format: in vivo, Avena fatua; conditions: pre-emergent; for percentage of weed control, AVEFA: 28 DAT; for percentage of weed control, Wild Oat AVEFA: 21 DAT, rate g ai/ha by row: r4 94, r5 125, r6 250, r7 125, r8 250, r9 500, r10 94+125, r11 125+125, r12 94+250, r13 125+250, r14 94+500, r15 125+500
# Description: as §1, §2, §3, §4
# Green foxtail (SETVI) [1] = assay: pre-emergence test, weed control; format: in vivo, Setaria viridis; conditions: pre-emergent, 28 DAT
# Description: as §1, §2, §3, §4
# crop and weed species = assay: pre-emergence test, several crop and weed species together; format: in vivo; conditions: pre-emergent, 28 DAT (Tables 16 and 17), >95% e.e.
# Description: as §1, §2
# Fiber flats designated for treatment were placed in a spray chamber having a static platform and a movable sprayer and the height of the spray nozzle was 10.5 inches above the soil level. Once the sprayer was calibrated using water for spray volume of 30 gallons per acre, flats were sprayed with sprayer at a speed to receive a coverage equivalent of 30 gallons per acre. […]
# The control of weeds was evaluated in each experimental test at 21 for wheat and 28 days after treatment (DAT) for all species. Data were analyzed using Minitab software at 95% confidence interval. […] Percent control was determined by a method similar to the 0 to 100 rating system disclosed in “Research Methods in Weed Science,” 2nd ed., B. Truelove, Ed.; Southern Weed Science Society; Auburn University, Auburn, Ala., 1977. […]
# velvetleaf (IPOHE) = assay: pre-emergence test, weed control; format: in vivo; conditions: pre-emergent, 21 DAT, rate g ai/ha by row: r4 94, r5 125, r6 250, r7 125, r8 250, r9 500, r10 94+125, r11 125+125, r12 94+250, r13 125+250, r14 94+500, r15 125+500
# Description: as §1, §2, §3, §4
# Velvetleaf (ABUTH) = assay: pre-emergence test, weed control; format: in vivo, Abutilon theophrasti; conditions: pre-emergent, 21 DAT, rate g ai/ha by row: r4 94, r5 125, r6 250, r7 125, r8 250, r9 500, r10 94+125, r11 125+125, r12 94+250, r13 125+250, r14 94+500, r15 125+500
# Description: as §1, §2, §3, §4
# Jimsonweed (DATST) = assay: pre-emergence test, weed control; format: in vivo, Datura stramonium; conditions: pre-emergent, 28 DAT; BFL at 62.5 g, PTX at 90 g, combination of both
# Description: as §1, §2, §3, §4
# Green foxtail (SETVI) [2] = assay: post-emergence test, weed control; format: in vivo, Setaria viridis; conditions: post-emergent, 28 DAT; BFL at 187.5 g, PTX at 890 g, combination of both
# Description: as §1
# For post-emergence testing, seeds of each species for each rate of application of each herbicide solution were planted in 7.5 cm×7.5 cm plastic pots filled with potting soil. The seeds were germinated and the resulting plants were allowed to grow in a greenhouse until they reached a growth stage, such as height, suitable for testing. Treatments were applied using compressed air in a track spray chamber at 30 gallons/acre (280 L/ha) using a TeeJet 8001E nozzle at 40 psi (2.76 bars). Pots of post-emergent treated plants were returned to the greenhouse and not watered for 24 hours after treatment. Thereafter they were regularly watered and fertilized for the duration of the test.
# as §4
# [3] = system: Common lambsquarters (CHEAL); assay: pre-emergence test, weed control; format: in vivo, Chenopodium album; conditions: pre-emergent, 28 DAT, (+)-BFL >95% e.e.; rate g ai/ha by row: r6 62.5, r7 125, r8 62.5, r9 125, r10 222, r11 445, r12 22.5, r13 45, r14 62.5+62.5, r15 125+62.5, r16 62.5+125, r17 125+125, r18 62.5+222, r19 125+222, r20 62.5+445, r21 125+445, r22 62.5+22.5, r23 125+22.5, r24 62.5+45, r25 125+45
# Description: as §1, §2, §3, §4
# [4] = (−)-BFL >95% e.e., rate g ai/ha by row: r6 62, r7 125, r8 125, r9 250, r10 445, r11 890, r12 45, r13 90, r14 62+125, r15 125+125, r16 62+250, r17 125+250, r18 62+445, r19 125+445, r20 62+890, r21 125+890, r22 62+45, r23 125+45, r24 62+90, r25 125+90, 62 g ai/ha
# [5] = (−)-BFL >95% e.e., rate g ai/ha by row: r6 62, r7 125, r8 125, r9 250, r10 445, r11 890, r12 45, r13 90, r14 62+125, r15 125+125, r16 62+250, r17 125+250, r18 62+445, r19 125+445, r20 62+890, r21 125+890, r22 62+45, r23 125+45, r24 62+90, r25 125+90, 125 g ai/ha
# [6] = (+)-BFL >95% e.e., rate g ai/ha by row: r6 62.5, r7 125, r8 62.5, r9 125, r10 222, r11 445, r12 22.5, r13 45, r14 62.5+62.5, r15 125+62.5, r16 62.5+125, r17 125+125, r18 62.5+222, r19 125+222, r20 62.5+445, r21 125+445, r22 62.5+22.5, r23 125+22.5, r24 62.5+45, r25 125+45
# [7] = (−)-BFL >95% e.e., rate g ai/ha by row: r6 62, r7 125, r8 125, r9 250, r10 445, r11 890, r12 45, r13 90, r14 62+125, r15 125+125, r16 62+250, r17 125+250, r18 62+445, r19 125+445, r20 62+890, r21 125+890, r22 62+45, r23 125+45, r24 62+90, r25 125+90, 445 g ai/ha
# [8] = (−)-BFL >95% e.e., rate g ai/ha by row: r6 62, r7 125, r8 125, r9 250, r10 445, r11 890, r12 45, r13 90, r14 62+125, r15 125+125, r16 62+250, r17 125+250, r18 62+445, r19 125+445, r20 62+890, r21 125+890, r22 62+45, r23 125+45, r24 62+90, r25 125+90, 890 g ai/ha
# [9] = (+)-BFL >95% e.e., rate g ai/ha by row: r6 62.5, r7 125, r8 62.5, r9 125, r10 222, r11 445, r12 22.5, r13 45, r14 62.5+62.5, r15 125+62.5, r16 62.5+125, r17 125+125, r18 62.5+222, r19 125+222, r20 62.5+445, r21 125+445, r22 62.5+22.5, r23 125+22.5, r24 62.5+45, r25 125+45, 222 g ai/ha
# [10] = (+)-BFL >95% e.e., rate g ai/ha by row: r6 62.5, r7 125, r8 62.5, r9 125, r10 222, r11 445, r12 22.5, r13 45, r14 62.5+62.5, r15 125+62.5, r16 62.5+125, r17 125+125, r18 62.5+222, r19 125+222, r20 62.5+445, r21 125+445, r22 62.5+22.5, r23 125+22.5, r24 62.5+45, r25 125+45, 445 g ai/ha
structure (smiles),measurement,setting,value
O=C(Nc1ccc(F)cc1F)c1cccnc1Oc1cccc(C(F)(F)F)c1 [Diflufenican],"percentage of weed control, DIGSA",Large crabgrass (DIGSA); 50 g ai/ha,18%
same,"percentage of weed control, DIGSA",Large crabgrass (DIGSA); 100 g ai/ha,30%
"CC[C@H](Oc1ccc(F)c(C(F)(F)F)c1)C(=O)NCc1ccccc1 [(−)-BFL, (2S)-2-[4-fluoro-3-(trifluoromethyl)phenoxy]-N-(phenylmethyl)butanamide]","percentage of weed control, AMAPA",Palmer amaranth (AMAPA); 62 g ai/ha,70%
same,"percentage of weed control, AMAPA",Palmer amaranth (AMAPA); 125 g ai/ha,97%
same,"percentage of weed control, SETLU",Yellow foxtail (SETLU); [4],86%
same,"percentage of weed control, SETLU",Yellow foxtail (SETLU); [5],100%
same,"percentage of weed control, ALOMY",Blackgrass (ALOMY); [4],19%
same,"percentage of weed control, ALOMY",Blackgrass (ALOMY); [5],32%
same,"percentage of weed control, AVEFA",Wild oat (AVEFA); [4],7%
same,"percentage of weed control, AVEFA",Wild oat (AVEFA); [5],11%
same,"percentage of weed control, SETVI",Green foxtail (SETVI) [1]; [4],80%
same,"percentage of weed control, SETVI",Green foxtail (SETVI) [1]; [5],97%
same,herbicidal activity of the enantiomers compared,crop and weed species,the more active enantiomer
CCOCN(C(=O)CCl)c1c(C)cccc1CC [Acetochlor],"percentage of weed control, Morningglory IPOHE",velvetleaf (IPOHE); 125 g ai/ha,5%
same,"percentage of weed control, Morningglory IPOHE",velvetleaf (IPOHE); 250 g ai/ha,6%
same,"percentage of weed control, Morningglory IPOHE",velvetleaf (IPOHE); 500 g ai/ha,8%
same,"percentage of weed control, Wild Oat AVEFA",Wild oat (AVEFA); 125 g ai/ha,13%
same,"percentage of weed control, Wild Oat AVEFA",Wild oat (AVEFA); 250 g ai/ha,11%
same,"percentage of weed control, Velvetleaf ABUTH",Velvetleaf (ABUTH); 125 g ai/ha,10%
same,"percentage of weed control, Velvetleaf ABUTH",Velvetleaf (ABUTH); 250 g ai/ha,11%
"CCOCCN(C(=O)CCl)C(=C(C)C)c1ccccc1 [PTX, Pethoxamid]","percentage of weed control, AMAPA",Palmer amaranth (AMAPA); 445 g ai/ha,98%
same,"percentage of weed control, AMAPA",Palmer amaranth (AMAPA); 890 g ai/ha,100%
same,control of jimsonweed,Jimsonweed (DATST),4%
same,"percentage of weed control, SETLU",Yellow foxtail (SETLU); [6],99%
same,"percentage of weed control, SETLU",Yellow foxtail (SETLU); [7],99%
same,"percentage of weed control, SETLU",Yellow foxtail (SETLU); [8],100%
same,"percentage of weed control, ALOMY",Blackgrass (ALOMY); [9],70%
same,"percentage of weed control, ALOMY",Blackgrass (ALOMY); [10],96%
same,"percentage of weed control, ALOMY",Blackgrass (ALOMY); [7],59%
same,"percentage of weed control, ALOMY",Blackgrass (ALOMY); [8],83%
same,control of green foxtail,Green foxtail (SETVI) [2],4%
same,"percentage of weed control, AVEFA",Wild oat (AVEFA); [9],84%
same,"percentage of weed control, AVEFA",Wild oat (AVEFA); [10],92%
same,"percentage of weed control, AVEFA",Wild oat (AVEFA); [7],89%
same,"percentage of weed control, AVEFA",Wild oat (AVEFA); [8],92%
same,"percentage of weed control, SETVI",Green foxtail (SETVI) [1]; [6],99%
same,"percentage of weed control, SETVI",Green foxtail (SETVI) [1]; [7],98%
same,"percentage of weed control, SETVI",Green foxtail (SETVI) [1]; [8],100%
same,"percentage of weed control, CHEAL",[3],100%
